Test results taken from patent EP0400319A1, “4-(4'-Halophenyl)-2-methyl-1,2,3,4-tetrahydroisoquinolines and process for their preparation” (N I S PRI VCHTI, priority 1989, dated 1990).
Values joined by “and” are separate entries in the source; they are usually repeats but may differ in a detail not shown here. Identical values can stand only once. Counter-ions that a name gives are not always drawn.

Tested on: durch Wasser-Immersionsstreß verursachte Magengeschwüre
Assay: Water-immersion stress induced gastric ulcers in rats
Assay type: in vivo, Ratten
Conditions: for Geschwürindex: 5 h water immersion; for Antiulkuswirkung im Vergleich zum Präparat Ranitidin: ratio of doses giving about 52% inhibition
From the text: Untersucht wurde auch die Antiulkusaktivität der razemischen 1a- und 1b-Verbindungen auf ein experimentelles Modell von Wasser-Immersionsstreß verursachten Magengeschwüren bei Ratten (Tabelle 2). Das Vergleichspräparat war der H₂-Antagonist Ranitidin.
Bestimmung der inhibierenden Wirkung von 1a und 1b auf durch Wasser-Immersionsstreß verursachte Magengeschwüre bei Ratten
Die Versuche wurden mit 280 weißen männlichen Ratten der Rasse Wistar mit einem Gewicht von 150 bis 200 g nach der in K. Takadi, Y. Ischii, Arzneim. Forsch. Drug Res., 1967, 17, 1544, beschriebenen Methode durchgeführt. 18 h vor dem Versuch hungern die Tiere unter freiem Wasserzutritt. Die Versuchsverbindung wird oral verabreicht, worauf die Tiere unbeweglich und voneinander isoliert auf dem Rücken auf eine Unterlage gebunden werden. Man legt die Tiere bei 17-18°C ins Wasser und tötet sie nach 5 h. Die Mägen werden entnommen und die destruktiven Veränderungen makroskopisch bestimmt.

Structure (SMILES): CN1Cc2ccccc2C(c2ccc(Br)cc2)C1 (racemic) [1a, 4-(4′-Bromphenyl)-2-methyl-1,2,3,4-tetrahydroisochinolin Hydrochlorid]
- ED50 (Rattus norvegicus, 5 h, oral, Inhibierungsgrad 52% at this dose, read-out: durchschnittliche effektive Dosis): 0.5 mg/kg
- Dosis, bei der der Inhibierungsgrad ein Maximum erreicht (oral): 3 mg/kg
- Unterdrückung des Geschwürindex (oral, 0,050 mg/kg): 20,6%
- Geschwürindex (oral, 0,050 mg/kg): 69 ±18,2
- Unterdrückung des Geschwürindex (oral, 0,100 mg/kg): 48,9% and 48,3%
- Geschwürindex (oral, 0,100 mg/kg): 44,4 ± 9,66
- Unterdrückung des Geschwürindex (oral, 0,500 mg/kg): 52,1%
- Geschwürindex (oral, 0,500 mg/kg): 30,8 ±17,7
- Unterdrückung des Geschwürindex (oral, 1,000 mg/kg): 58,9%
- Geschwürindex (oral, 1,000 mg/kg): 35,7 ±14,2
- Unterdrückung des Geschwürindex (oral, 3,000 mg/kg): 70,3%
- Geschwürindex (oral, 3,000 mg/kg): 19,5 ±12,3
- Antiulkuswirkung im Vergleich zum Präparat Ranitidin (oral): 20 Mal

Structure (SMILES): CN1Cc2ccccc2C(c2ccc(F)cc2)C1 (racemic) [1b, 4-(4′-fluorphenyl)-2-methyl-1,2,3,4-tetrahydroisochinolin Hydrochlorid]
- Unterdrückung des Geschwürindex (oral, 1,000 mg/kg): 41,53%
- Geschwürindex (oral, 1,000 mg/kg): 38,5 ± 7,75
- Unterdrückung des Geschwürindex (oral, 3,000 mg/kg): 57,98%
- Geschwürindex (oral, 3,000 mg/kg): 27,66±12,73
- Antiulkuswirkung im Vergleich zum Präparat Ranitidin (oral): Ähnliche Ergebnisse

Structure (SMILES): CNC(=C[N+](=O)[O-])NCCSCc1ccc(CN(C)C)o1 [Ranitidin, reference compound]
- Unterdrückung des Geschwürindex (oral, 10 mg/kg): 46,98%
- Geschwürindex (oral, 10 mg/kg): 22,8
- Unterdrückung des Geschwürindex (oral, 30 mg/kg): 61,62%
- Geschwürindex (oral, 30 mg/kg): 17,0
- Unterdrückung des Geschwürindex (oral, 0,500 mg/kg): 27%
- Geschwürindex (oral, 0,500 mg/kg): 32,3
- Unterdrückung des Geschwürindex (oral, 1,000 mg/kg): 39,27%
- Geschwürindex (oral, 1,000 mg/kg): 26,9
- Unterdrückung des Geschwürindex (oral, 3,000 mg/kg): 35,89%
- Geschwürindex (oral, 3,000 mg/kg): 28,4
